Results published in US20140296288A1, “IMINO-SUGAR C-GLYCOSIDES, PREPARATION AND USE THEREOF” (UNIVERSITE PIERRE ET MARIE CURIE (PARIS 6), priority 2011, published 2014).
Like-named read-outs stand apart in the source and are kept apart here.

Assays:
β-glucosidase [1] = experiment: In vitro glycosidase inhibition, β-glucosidase (bovine liver); type: biochemical
Description: (§1) All glycosidases and p-nitrophenyl glycosides were purchased from Sigma-Aldrich Co. The enzyme assays were performed according to the methods described in Kato, A.; Miyauchi, S.; Kato, N.; Nash, R. J.; Yoshimura, Y.; Nakagome, I.; Hirono, S.; Takahata, H.; Adachi, I. Bioorg. Med. Chem. 19, 3558-3568, 2011. The activities were determined using an appropriate p-nitrophenyl glycoside as substrate at the optimum pH of each enzyme. The reaction mixture contained 2 mM of the substrate and the appropriate amount of enzyme. The reaction was stopped by adding 2 mL of 400 mM Na2CO3. The released p-nitrophenol was measured spectrometrically at 400 nm.

rat intestinal maltase = experiment: In vitro glycosidase inhibition, α-glucosidase (rat intestinal maltase); type: biochemical
Description: as §1

α-mannosidase = target: T1, α-mannosidase (Canavalia ensiformis, UniProt C0HJB3); experiment: In vitro glycosidase inhibition, α-mannosidase (jack beans); type: biochemical
T1 construct: purchased Sigma-Aldrich Co
T1 sequence (C0HJB3 1-981): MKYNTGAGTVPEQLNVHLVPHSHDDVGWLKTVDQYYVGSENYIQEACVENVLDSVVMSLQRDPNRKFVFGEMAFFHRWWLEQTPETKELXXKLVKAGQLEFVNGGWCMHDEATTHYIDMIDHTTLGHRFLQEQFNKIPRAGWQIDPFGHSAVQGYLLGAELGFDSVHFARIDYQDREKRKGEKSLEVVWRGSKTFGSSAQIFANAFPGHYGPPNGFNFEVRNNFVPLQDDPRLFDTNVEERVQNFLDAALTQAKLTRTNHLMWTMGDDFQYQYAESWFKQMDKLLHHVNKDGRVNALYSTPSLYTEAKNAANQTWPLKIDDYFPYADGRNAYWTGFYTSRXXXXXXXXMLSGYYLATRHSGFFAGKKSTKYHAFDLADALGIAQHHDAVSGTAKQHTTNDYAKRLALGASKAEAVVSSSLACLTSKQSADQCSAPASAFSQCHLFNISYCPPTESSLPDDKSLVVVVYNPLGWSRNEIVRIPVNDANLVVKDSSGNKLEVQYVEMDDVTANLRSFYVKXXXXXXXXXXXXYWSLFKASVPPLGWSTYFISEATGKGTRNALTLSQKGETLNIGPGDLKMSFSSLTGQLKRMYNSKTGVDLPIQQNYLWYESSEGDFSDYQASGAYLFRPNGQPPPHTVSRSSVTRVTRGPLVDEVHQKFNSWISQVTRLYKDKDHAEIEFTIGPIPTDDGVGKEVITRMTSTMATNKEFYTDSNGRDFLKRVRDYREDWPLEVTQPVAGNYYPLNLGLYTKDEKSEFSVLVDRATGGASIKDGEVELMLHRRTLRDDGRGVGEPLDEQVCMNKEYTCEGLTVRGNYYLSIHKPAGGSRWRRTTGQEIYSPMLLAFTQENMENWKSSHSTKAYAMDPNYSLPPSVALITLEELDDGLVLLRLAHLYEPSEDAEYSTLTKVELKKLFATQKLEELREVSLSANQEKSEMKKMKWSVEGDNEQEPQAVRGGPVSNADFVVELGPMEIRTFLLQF
Description: as §1

β-galactosidase = experiment: In vitro glycosidase inhibition, β-galactosidase (bovine liver); type: biochemical
Description: as §1

α-glucosidase [2] = target: T2, α-glucosidase (Oryza sativa subsp. japonica, UniProt Q653V7); experiment: In vitro glycosidase inhibition, α-glucosidase (rice); type: biochemical
T2 construct: purchased Sigma-Aldrich Co
T2 sequence (Q653V7 34-885): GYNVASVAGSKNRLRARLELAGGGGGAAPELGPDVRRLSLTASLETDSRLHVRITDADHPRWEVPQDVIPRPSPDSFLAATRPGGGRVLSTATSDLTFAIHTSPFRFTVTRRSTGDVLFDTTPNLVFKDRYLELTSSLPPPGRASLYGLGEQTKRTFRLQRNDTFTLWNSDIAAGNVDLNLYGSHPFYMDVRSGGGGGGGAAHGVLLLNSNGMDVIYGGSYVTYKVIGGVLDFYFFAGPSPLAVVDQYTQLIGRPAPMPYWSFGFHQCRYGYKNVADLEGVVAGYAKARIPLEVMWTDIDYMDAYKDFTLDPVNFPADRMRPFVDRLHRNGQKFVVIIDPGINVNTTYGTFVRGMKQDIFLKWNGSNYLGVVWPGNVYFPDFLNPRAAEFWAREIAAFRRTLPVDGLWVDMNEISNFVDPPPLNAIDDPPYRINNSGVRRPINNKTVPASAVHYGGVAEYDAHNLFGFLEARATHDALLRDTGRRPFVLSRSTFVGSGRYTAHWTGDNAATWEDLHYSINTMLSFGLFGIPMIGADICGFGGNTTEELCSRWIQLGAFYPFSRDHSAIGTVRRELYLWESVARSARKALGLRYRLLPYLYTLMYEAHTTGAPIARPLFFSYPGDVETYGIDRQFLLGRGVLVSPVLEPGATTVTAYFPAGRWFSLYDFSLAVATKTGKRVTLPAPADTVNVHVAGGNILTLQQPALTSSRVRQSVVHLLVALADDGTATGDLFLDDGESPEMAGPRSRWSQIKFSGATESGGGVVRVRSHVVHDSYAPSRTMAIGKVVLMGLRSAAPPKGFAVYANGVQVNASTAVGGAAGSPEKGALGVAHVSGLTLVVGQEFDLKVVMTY
Description: as §1

[3] = test system: β-N-acetyl hexosaminidase; experiment: In vitro glycosidase inhibition, β-N-acetyl hexosaminidase (human placenta); type: biochemical; settings: for selectivity of inhibitory activity towards β-N-acetyl hexosaminidase: versus the other glycosidases of Table 1; for IC50: β-N-acetyl hexosaminidase, human placenta
Description: as §1

[4] = target: T3, α-N-acetyl galactosaminidase (Gallus gallus, UniProt Q90744); experiment: In vitro glycosidase inhibition, α-N-acetyl galactosaminidase (chicken liver); type: biochemical
T3 construct: purchased Sigma-Aldrich Co; host or cells: chicken liver
T3 sequence (Q90744 1-405): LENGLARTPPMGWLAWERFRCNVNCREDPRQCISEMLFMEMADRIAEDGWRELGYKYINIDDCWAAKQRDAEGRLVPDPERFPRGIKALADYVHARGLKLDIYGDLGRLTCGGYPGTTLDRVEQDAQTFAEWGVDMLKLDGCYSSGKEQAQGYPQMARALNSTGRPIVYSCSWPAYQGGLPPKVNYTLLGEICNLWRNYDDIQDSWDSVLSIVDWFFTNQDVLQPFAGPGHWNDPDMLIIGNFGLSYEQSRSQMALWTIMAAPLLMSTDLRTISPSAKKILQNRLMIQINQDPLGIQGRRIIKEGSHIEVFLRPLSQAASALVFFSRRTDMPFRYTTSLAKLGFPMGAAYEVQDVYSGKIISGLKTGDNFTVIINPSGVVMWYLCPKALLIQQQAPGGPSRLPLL
Description: as §1

α-glucosidase [5] = target: T4, α-glucosidase (Saccharomyces cerevisiae, UniProt P53341); experiment: In vitro glycosidase inhibition, α-glucosidase (yeast); type: biochemical
T4 construct: purchased Sigma-Aldrich Co
T4 sequence (P53341 whole entry): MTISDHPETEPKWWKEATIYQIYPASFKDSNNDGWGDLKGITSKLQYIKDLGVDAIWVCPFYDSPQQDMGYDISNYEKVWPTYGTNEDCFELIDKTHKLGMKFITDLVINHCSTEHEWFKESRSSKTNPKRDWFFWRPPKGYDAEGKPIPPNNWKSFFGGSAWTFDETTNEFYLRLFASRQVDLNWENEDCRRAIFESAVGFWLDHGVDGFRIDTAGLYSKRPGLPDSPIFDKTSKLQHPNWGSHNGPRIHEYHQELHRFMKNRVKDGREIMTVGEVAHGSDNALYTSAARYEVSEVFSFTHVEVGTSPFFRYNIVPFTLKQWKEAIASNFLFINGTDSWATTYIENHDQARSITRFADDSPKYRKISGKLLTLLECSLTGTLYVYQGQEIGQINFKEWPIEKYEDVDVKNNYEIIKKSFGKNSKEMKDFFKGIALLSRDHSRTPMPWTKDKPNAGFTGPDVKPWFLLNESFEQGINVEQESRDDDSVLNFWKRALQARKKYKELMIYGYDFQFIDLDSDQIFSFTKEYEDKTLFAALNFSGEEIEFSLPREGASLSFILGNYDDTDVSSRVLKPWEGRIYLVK
Description: as §1

α-galactosidase = target: T5, α-galactosidase (Coffea arabica, UniProt Q42656); experiment: In vitro glycosidase inhibition, α-galactosidase (coffee beans); type: biochemical
T5 construct: purchased Sigma-Aldrich Co
T5 sequence (Q42656 16-378): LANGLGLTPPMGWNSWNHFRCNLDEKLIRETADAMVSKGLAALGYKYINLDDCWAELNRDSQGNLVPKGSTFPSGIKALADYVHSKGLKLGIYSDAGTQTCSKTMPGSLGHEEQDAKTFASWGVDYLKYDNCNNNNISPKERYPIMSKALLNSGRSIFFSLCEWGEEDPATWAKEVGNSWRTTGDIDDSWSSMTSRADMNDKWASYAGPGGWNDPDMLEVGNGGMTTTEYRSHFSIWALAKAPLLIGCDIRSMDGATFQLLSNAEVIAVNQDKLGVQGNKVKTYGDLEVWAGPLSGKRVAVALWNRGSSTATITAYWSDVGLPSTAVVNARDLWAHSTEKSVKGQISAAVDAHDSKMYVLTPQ
Description: as §1

β-mannosidase = experiment: In vitro glycosidase inhibition, β-mannosidase (snail); type: biochemical
Description: as §1

[6] = target: β-N-acetyl hexosaminidase; experiment: In vitro glycosidase inhibition, β-N-acetyl hexosaminidase (bovine kidney); type: biochemical
Description: as §1

β-glucosidase [7] = experiment: In vitro glycosidase inhibition, β-glucosidase (almond); type: biochemical
Description: as §1

[8] = test system: α-N-acetylglucosaminidase (NAGLU); experiment: Enzyme activation assay, MPS IIIB fibroblasts GM00737; type: cell-based, human; settings: 3 days, 0-10 μM
Description: (§2) Compounds (1) and (B) (compound (B) is described in A. Vasella, Helvetica Chimica Acta, 1998, 865) were tested in 3 Sanfillipo patient-derived fibroblast cell lines, named as MPS IIIB fibroblast cells lines below.
(§3) MPS IIIB fibroblasts (GM01426, GM02931 and GM00737) were cultured in the presence of various concentrations of compounds (1) and (B) (0-10 μM) for 3 days before α-N-acetylglucosaminidase (NAGLU) activity was measured in cell homogenates using 4-methylumbelliferyl-α-N-acetylglucosamine (4-MU-α-GlcNAc) as substrate. Cells were washed twice in phosphate buffered saline, homogenised in water using a small dounce homogeniser, centrifuged at 800 g for 5 min and the supernatant taken for protein and enzyme activity. Protein concentration was determined using the BCA assay (Pierce, UK) according to manufacturer's instructions. An aliquot, (5 μl) of homogenate was added to a well of a 96-well plate containing 10 μl 2 mM 4-MU substrate (in water) and 5 μl 0.2 M sodium acetate buffer, pH 4.3. Following incubation for 3-4 h at 37° C. in a humidified incubator, the reaction was stopped by adding 300 μl 0.5 M glycine/NaOH, pH 10.3 and the fluorescence measured at 460 nm using an excitation wavelength of 350 nm, em 460 nm. Enzyme activation is defined as the fold increase in fluorescence due to enzyme activity (FU/μg protein) in treated cells compared to untreated cells. […]

[9] = test system: α-N-acetylglucosaminidase (NAGLU); experiment: Enzyme activation assay, MPS IIIB fibroblasts GM01426; type: cell-based, human; settings: 3 days, 0-10 μM
Description: as §2, §3

[10] = test system: α-N-acetylglucosaminidase (NAGLU); experiment: Enzyme activation assay, MPS IIIB fibroblasts GM02931; type: cell-based, human; settings: 3 days, 0-10 μM
Description: as §2, §3

[11] = 1000 μM, read-out: % of inhibition at 1000 μM
[12] = read-out: % of inhibition at 1000 μM

Question: What does the source list for `CC(=O)N[C@@H]1[C@@H](O)[C@H](O)[C@@H](CO)N[C@H]1CO` [1′, N-((2R,3R,4R,5S,6R)-3,4-dihydroxy-2,6-bis(hydroxymethyl)piperidin-5-yl)acetamide]?
Answer: IC50 (β-glucosidase [1]): NI (No Inhibition (less than 50% inhibition at 1000 μM)); % of inhibition at 1000 μM (β-glucosidase [1]): 15.5%; IC50 (rat intestinal maltase): NI (No Inhibition (less than 50% inhibition at 1000 μM)); % of inhibition at 1000 μM (rat intestinal maltase): 1.3%; inhibition at 1000 µM (α-mannosidase; [11]): 0%; inhibition at 1000 µM (α-mannosidase; read-out: IC50): < 50%; % of inhibition at 1000 μM (β-galactosidase): 5.7%; inhibition at 1000 µM (α-glucosidase [2]; [11]): 15.9%; inhibition at 1000 µM (α-glucosidase [2]; read-out: IC50): < 50%; selectivity of inhibitory activity towards β-N-acetyl hexosaminidase [3]: selective inhibitory activity; IC50 [3]: 72 µM; inhibition at 1000 µM [4, 11]: 42.7%; inhibition at 1000 µM ([4]; read-out: IC50): < 50%; inhibition at 1000 µM (α-glucosidase [5]; [12]): 15.4%; inhibition at 1000 µM (α-glucosidase [5]; α-glucosidase, yeast, read-out: IC50): < 50%; inhibition at 1000 µM (α-galactosidase; [11]): 13.1%; inhibition at 1000 µM (α-galactosidase; read-out: IC50): < 50%; IC50 (β-mannosidase): NI (No Inhibition (less than 50% inhibition at 1000 μM)); % of inhibition at 1000 μM (β-mannosidase): 0%; IC50 [6]: 65 µM; IC50 (β-glucosidase [7]): NI (No Inhibition (less than 50% inhibition at 1000 μM)); % of inhibition at 1000 μM (β-glucosidase [7]): 18.3%

Question: How did the IC50 (β-glucosidase [1]) turn out when `CC(=O)N[C@@H]1[C@@H](O)[C@H](O)[C@@H](CO)N[C@@H]1CO` [Compound 1, N-((2R,3R,4R,5S,6S)-3,4-dihydroxy-2,6-bis(hydroxymethyl)piperidin-5-yl)acetamide] was run?
Answer: Its IC50 is “NI (No Inhibition (less than 50% inhibition at 1000 μM))”.

Question: And the “% of inhibition at 1000 μM” value (β-glucosidase [1])?
Answer: Its value is 4.4%.

Question: What about the IC50 (rat intestinal maltase) of the same molecule?
Answer: Its IC50 is “NI (No Inhibition (less than 50% inhibition at 1000 μM))”.

Question: And the “% of inhibition at 1000 μM” value (rat intestinal maltase)?
Answer: Its value is 26.7%.

Question: What about the inhibition at 1000 µM (α-mannosidase; [11]) of the same molecule?
Answer: The inhibition at 1000 µM was 2.3%.

Question: What about the inhibition at 1000 µM (α-mannosidase; read-out: IC50) of the same molecule?
Answer: The inhibition at 1000 µM was < 50%.

Question: What about the “% of inhibition at 1000 μM” value (β-galactosidase) of the same molecule?
Answer: Its value is 5.0%.

Question: What about the inhibition at 1000 µM (α-glucosidase [2]; [11]) of the same molecule?
Answer: Its inhibition at 1000 µM is 32.3%.

Question: What about the inhibition at 1000 µM (α-glucosidase [2]; read-out: IC50) of the same molecule?
Answer: The inhibition at 1000 µM was < 50%.

Question: And the “selectivity of inhibitory activity towards β-N-acetyl hexosaminidase” value [3]?
Answer: Its value is “selective inhibitory activity”.

Question: What about the IC50 [3] of the same molecule?
Answer: The IC50 was 56 µM.

Question: And the inhibition at 1000 µM [4, 11]?
Answer: The inhibition at 1000 µM was 42.4%.

Question: What about the inhibition at 1000 µM ([4]; read-out: IC50) of the same molecule?
Answer: Its inhibition at 1000 µM is < 50%.

Question: What about the inhibition at 1000 µM (α-glucosidase [5]; [12]) of the same molecule?
Answer: The inhibition at 1000 µM was 18.5%.

Question: And the inhibition at 1000 µM (α-glucosidase [5]; read-out: IC50)?
Answer: Its inhibition at 1000 µM is < 50%.

Question: What about the inhibition at 1000 µM (α-galactosidase; [11]) of the same molecule?
Answer: Its inhibition at 1000 µM is 19.7%.

Question: And the inhibition at 1000 µM (α-galactosidase; read-out: IC50)?
Answer: The inhibition at 1000 µM was < 50%.

Question: And the IC50 (β-mannosidase)?
Answer: Its IC50 is “NI (No Inhibition (less than 50% inhibition at 1000 μM))”.

Question: And the “% of inhibition at 1000 μM” value (β-mannosidase)?
Answer: Its value is 1.9%.

Question: What about the IC50 [6] of the same molecule?
Answer: The IC50 was 67 µM.

Question: What about the IC50 (β-glucosidase [7]) of the same molecule?
Answer: Its IC50 is “NI (No Inhibition (less than 50% inhibition at 1000 μM))”.

Question: And the “% of inhibition at 1000 μM” value (β-glucosidase [7])?
Answer: Its value is 5.0%.

Question: Which results are given for “N-((2R,3R,4R,5S,6S)-3,4-dihydroxy-2,6-bis(hydroxymethyl)piperidin-5-yl)acetamide [Compound 1]”?
Answer: NAGLU enzyme activation, result in words [8]: activation at lower concentrations; NAGLU enzyme activation, result in words [9]: concentration dependent increase up to 1 μM; NAGLU enzyme activation (fold increase in FU/μg protein vs untreated cells) ([9]; best activation seen): 2.4 fold; NAGLU enzyme activation, result in words [10]: activation at lower concentrations
